What was measured:
[1] = cited from earlier work
[2] = cited from earlier work; remark: listed apart in the source
[3] = Hydrolysis in aqueous buffer solution pH 7.4; type: physicochemical; conditions: pH 7.4, 37° C., read-out: half-life of hydrolysis in pure buffer solution
Experimental: Solutions of various derivatives of this invention in aqueous buffer solutions or 50-80% human plasma solutions (pH 7.4) were kept at 37° C. The initial concentration of the derivatives was in the range 3×10^-4 -10^-5 M. At various times an aliquot of the solutions was withdrawn and analyzed by HPLC for remaining derivative as well as for parent acid. For the plasma solutions the aliquot withdrawn was deproteinized with methanol, ethanol or acetonitrile and after centrifugation, the clear supernatant was injected on HPLC.
An HPLC method was used for the determination of the ester derivatives and their parent acids. In this method a reversed-phase LiChrosorb RP-8 column (250×4 mm) was eluted at ambient temperature with mixtures of methanol and 0.01M acetate buffer pH 5.0, methanol and 0.01M phosphate buffer pH 4.5 or methanol and 0.02M phosphate buffer pH 3.5. the composition of the eluant was adjusted for each compound in order to provide an appropriate retention time and separation of ester and the corresponding acid. The flow-rate was 0.6-1.6 ml/min and the column effluent was monitored spectrophotometrically at an appropriate wavelength. Quantitation of the compounds was done by measurement of the peak heights in relation to those of standards chromatographed under the same conditions.

[4] = Stability in acidic media (0.01M HCl); type: physicochemical; conditions: 37° C., read-out: hydrolysis in 0.01M HCl

Row | Compound | hydrolysis by plasma enzymes / stability in plasma [1] | part of oral dose deesterified in vivo to the active parent acid ([2]; oral, Rakhit & Tipnis, 1985) | S, solubility in water | half-life [3] | degraded at 3 h [4] | availability of the active parent acid ([2]; Todd & Heel, 1986)
1 | CCOC(=O)[C@H](C)C[C@@H](C)C(=O)N1c2ccccc2C[C@H]1C(=O)O [Pentopril] | highly stable in human plasma | less than 50% |  |  |  | 
2 | CCN(CC)C(=O)COC(=O)c1ccccc1 [Example 10, 2-(benzoyloxy)-N,N-diethylacetamide] |  |  | 2000 µg/mL | > 41.7 days | < 1% | 
3 | CCOC(=O)[C@H](CCc1ccccc1)N[C@@H](C)C(=O)N1CCC[C@H]1C(=O)O [Enalapril] | Plasma enzymes do not hydrolyze the ester |  |  |  |  | incomplete availability of the active parent acid

From patent US5073641A, “Prodrug derivatives of carboxylic acid drugs” (priority 1986, dated 1991)
